Patent US20230203094A1, “Composition Comprising Thermosensitive Gel and Oligopeptide, and Use Thereof” (International Frontier Technology Laboratory, Inc., priority 2019, published 2023)

System: human keratinocyte cell (KAC Co., Ltd.: KER110)
Assay: Cell proliferation test (Cell Counting Kit-8) in TGP culturing substrate
Assay type: cell-based
Conditions: 7 days culture, control = 100%, p < 0.01 (Dunnett)
Protocol: human keratinocyte cell (KAC Co., Ltd.: KER110)
the composition of the present disclosure comprising the polymer compound (TGP in Preparation Example 1) and oligopeptide of the present disclosure.
Frozen human keratinocyte cells (KAC Co., Ltd.: KER110) were dissolved in warm water at 37° C., suspended in EpiLife Medium (Thermo Fisher Scientific, Inc.: MEPI500CA) to which Human Keratinocyte Growth Supplement (HKGS) (Thermo Fisher Scientific, Inc.: S0015) was added, seeded in a 25 cm^2 flask, and cultured at 37° C. in an atmosphere containing 5% CO2.
The cultured cells were washed with DPBS (Thermo Fisher Scientific, Inc.: 14190144), and a trypsin solution (Thermo Fisher Scientific, Inc.: 12604013) was added to the cultured cells to recover cells and was centrifuged at 1,000 rpm for three minutes. After the centrifugation, supernatant was removed. A cell suspension obtained by adding a culture solution to a cell sediment was seeded in a 25 cm^2 flask and subcultured at 37° C. in an atmosphere containing 5% CO2.
The tripeptide in Preparation Example 3 was dissolved in a culture medium to prepare six samples having concentrations of 1 µM, 3 µM, 10 µM, 30 µM, 100 µM, and 1000 µM. A control includes only a culture medium.
The polymer compound (TGP in Preparation Example 1) of the present disclosure is added into a 48-well plate and freeze-dried. 120 µL of the six samples of the above concentrations and the control culture medium were added to the respective wells, and each mixture was dissolved with cooling at 4° C. overnight.
30 µL of a cell suspension recovered through the same procedure as the subculture operation was seeded in the polymer compound of the present disclosure in the 48-well plate and gelled at 37° C. for 30 minutes in an atmosphere containing 5% CO2. Then, 300 µL of the six samples of the above concentrations and control culture medium were layered and cultured at 37° C. in an atmosphere containing 5% CO2.
After culturing for 7 days, 250 µL of culture supernatant was removed, 60 µL of Cell Counting Kit-8 (Doujin Kagaku Co., Ltd.) was added and the mixture was reacted overnight at 37° C. in an atmosphere containing 5% CO2. 80 µL of the supernatant of an obtained reaction product was dispensed into a 96-well plate. This supernatant was measured with a microplate reader at a measurement wavelength of 450 nm to evaluate cell proliferation.
The cell proliferation rates of 1 µM, 3 µM, 10 µM, 30 µM, 100 µM, and 1000 µM samples were compared with that of a control, and the results are shown in Table 1 below.

## CC[C@H](C)[C@H](NC(=O)[C@@H]1CCCN1)C(=O)NCC(=O)O (racemic) [Preparation Example 3, prolyl-isoleucyl-glycine]
1 µM tripeptide in TGP substrate
  Cell Proliferation Rates: 114%
3 µM tripeptide in TGP substrate
  Cell Proliferation Rates: 116%
10 µM tripeptide in TGP substrate
  Cell Proliferation Rates: 118%
30 µM tripeptide in TGP substrate
  Cell Proliferation Rates: 126%
100 µM tripeptide in TGP substrate
  Cell Proliferation Rates: 126%
1000 µM tripeptide in TGP substrate
  Cell Proliferation Rates: 128%
